Data on 22 compounds can be found in patent US20240246946A1, “MODULATORS OF TREX1” (Constellation Pharmaceuticals, Inc., priority 2021, published 2024).

pIC50: −log10 of the molar value.

Assay [1] concerns the target T1, full length human TREX1 (Homo sapiens, UniProt Q9NSU2).
T1 construct: N-terminally His-Tev tagged full length human TREX1; made in house; host or cells: E. coli
T1 sequence (Q9NSU2 1-314): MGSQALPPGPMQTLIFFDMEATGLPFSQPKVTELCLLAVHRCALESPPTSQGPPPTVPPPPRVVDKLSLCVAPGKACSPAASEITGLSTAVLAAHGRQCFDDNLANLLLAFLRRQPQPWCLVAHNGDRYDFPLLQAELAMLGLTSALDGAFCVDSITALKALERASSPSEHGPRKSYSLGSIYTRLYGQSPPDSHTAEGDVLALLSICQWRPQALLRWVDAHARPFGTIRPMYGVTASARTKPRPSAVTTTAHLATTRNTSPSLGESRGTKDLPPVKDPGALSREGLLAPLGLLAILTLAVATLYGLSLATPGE
In words: hTREX1 Biochemical Assay (fluorescence, dsDNA substrate degradation). To be noted: biochemical, read-out: hTREX1 IC50. The method in brief:
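Cleavage of 60 nM TEX615/quencher-labelled dsDNA in pH 7.4 Tris buffer with 5 mM MgCl2, 1.0% DMSO, run 18 hours at 25° C, EDTA-quenched; fluorescence read-out.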

The target in assay [2] is T2, full length mouse TREX1 (Mus musculus, UniProt Q91XB0).
T2 construct: N-terminally His-Tev tagged full length mouse TREX1; made in house; host or cells: E. coli
T2 sequence (Q91XB0 1-314): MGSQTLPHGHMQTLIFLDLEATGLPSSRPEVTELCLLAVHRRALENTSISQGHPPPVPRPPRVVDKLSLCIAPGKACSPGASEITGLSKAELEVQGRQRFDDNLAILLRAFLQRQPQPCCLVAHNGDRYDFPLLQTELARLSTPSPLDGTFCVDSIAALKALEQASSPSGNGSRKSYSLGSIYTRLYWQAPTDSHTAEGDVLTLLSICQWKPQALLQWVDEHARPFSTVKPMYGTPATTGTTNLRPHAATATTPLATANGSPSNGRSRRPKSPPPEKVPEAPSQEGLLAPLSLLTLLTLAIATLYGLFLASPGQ
The assay can be described thus: mTREX1 Biochemical Assay (fluorescence, dsDNA substrate degradation). To be noted: biochemical, read-out: mTREX1 IC50. In outline: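 Reaction run 18 h at 25° C. with 60 nM TEX615/quencher-labelled dsDNA and 6 pM mouse TREX1 in Tris buffer (pH 7.4, 5 mM MgCl2, 1.0% DMSO), enzyme having sat 4 h with compound across 10 concentrations. EDTA quench; substrate degradation measured as fluorescence increase.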

For assay [3], the target named is T3, human TREX2 (residues M44-A279) (Homo sapiens, UniProt Q9BQ50).
T3 construct: human TREX2 (residues M44-A279, expressed in E. coli); made in house; host or cells: E. coli
T3 sequence (Q9BQ50 44-279 isoform Q9BQ50-1): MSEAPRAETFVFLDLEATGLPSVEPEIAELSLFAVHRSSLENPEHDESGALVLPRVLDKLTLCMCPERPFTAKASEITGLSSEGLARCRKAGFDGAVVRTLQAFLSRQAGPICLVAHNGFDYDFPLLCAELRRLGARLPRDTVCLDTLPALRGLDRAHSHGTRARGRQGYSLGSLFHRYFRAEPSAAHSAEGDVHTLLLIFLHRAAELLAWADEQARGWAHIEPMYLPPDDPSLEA
The assay can be described thus: hTREX2 Biochemical Assay (fluorescence, dsDNA substrate degradation). To be noted: biochemical selectivity for hTREX1 vs hTREX2. As to the method: Degradation of the dsDNA liberates free fluorophore to produce a fluorescent signal. Specifically, 7.5 μL of N-terminally His-Tev tagged human TREX2 (residues M44-A279, expressed in E. coli and purified in house) in reaction buffer (50 mM Tris, 150 mM NaCl, 2 mM DTT, 0.1 mg/mL BSA, 0.01% (w/v) Tween-20, 5 mM MgCl2, pH 7.4) was added to a 384-well Black ProxiPlate Plus (PerkinElmer) which already contained compound (150 nL) at varying concentrations as a 10 point dose-response in DMSO. The plate was incubated at 25° C. for 4 hours. Reactions were initiated by adding 7.5 μL of dsDNA substrate (Strand A: 5′ TEX615/GCT AGG CAG 3′; Strand B: 5′ CTG CCT AGC/IAbRQSp (IDT)) in reaction buffer. Final concentrations were 50 pM TREX2, 60 nM dsDNA substrate in reaction buffer with 1.0% DMSO (v/v). After 18 hours at 25° C., reactions were quenched by the addition of 2 μL of 500 mM EDTA. Final concentrations in the quenched reaction mixture were 44 pM TREX2, 53 nM DNA and 59 mM EDTA in a volume of 17 μL. After a 5-minute incubation at room temperature, plates were read in an EnVision plate reader (PerkinElmer) measuring fluorescence at 615 nm following excitation w/570 nm light.

For `CC(c1nc(C(=O)Nc2cnoc2)c(O)c(=O)n1C)C(c1cnn(C)c1)c1cccnc1C#N` (single isomer, unassigned) [Example 7 D2E2], the pIC50 in assay [1] and in assay [2] was < 8.00 each time. Besides, in assay [3], the “hTREX1 vs hTREX2 selectivity” value is “B (B = 25 to 50-fold selective for hTREX1)”.

For `Cc1nn(C)c(C)c1C(c1ccccc1C#N)C(C)c1nc(C(=O)Nc2cnoc2)c(O)c(=O)n1C` (single isomer, unassigned) [Example 78 D1E2], the pIC50 in assay [1] and in assay [2] was < 8.00 in each case. The “hTREX1 vs hTREX2 selectivity” value in assay [3] is “A (A = <25 fold selective for hTREX1)”.

Consider `CC(c1nc(C(=O)Nc2cnoc2)c(O)c(=O)n1C)C(c1cnn(CCN2CCN(C(=O)OC(C)(C)C)CC2)c1)c1ccccc1C#N` (single isomer, unassigned) [Example 21 D2E1], for which the pIC50 in assay [1] and in assay [2] was < 8.00 in each case. Also, the “hTREX1 vs hTREX2 selectivity” value in assay [3] is given as “B (B = 25 to 50-fold selective for hTREX1)”.

As to `CC(c1nc(C(=O)Nc2cnoc2)c(O)c(=O)n1C)C(c1cnn(C)c1)c1cc(F)ccc1C#N` (single isomer, unassigned) [Example 14 D2E1], the pIC50 in assay [1] and in assay [2] was < 8.00 throughout. Moreover, in assay [3], the “hTREX1 vs hTREX2 selectivity” value is “A (A = <25 fold selective for hTREX1)”.

On to `CC(c1nc(C(=O)Nc2cnoc2)c(O)c(=O)n1C)C(c1ccccc1Cl)c1cn(C)nc1F` (single isomer, unassigned) [Example 130 D1E2], for which the negative-log IC50 (pIC50) in assay [1] and in assay [2] was < 8.00 in each case. The “hTREX1 vs hTREX2 selectivity” value in assay [3] is “A (A = <25 fold selective for hTREX1)”.

Take `CC(c1nc(C(=O)Nc2cnoc2)c(O)c(=O)n1C)C(c1ccccc1Cl)n1cc2ccccc2n1` (single isomer, unassigned) [Example 141 D1E2]: the pIC50 in assay [1] and in assay [2] was < 8.00 each time. The “hTREX1 vs hTREX2 selectivity” value in assay [3] was “A (A = <25 fold selective for hTREX1)”.

`CC(c1nc(C(=O)Nc2cnoc2)c(O)c(=O)n1C)C(c1ccccc1Cl)n1nccc1C(N)=O` (single isomer, unassigned) [Example 147 D1E2]: the pIC50 in assay [1] and in assay [2] was < 8.00 each time. Besides, in assay [3], the “hTREX1 vs hTREX2 selectivity” value was “A (A = <25 fold selective for hTREX1)”.

On to `Cc1ncc(C(c2cc(F)ccc2C#N)C(C)c2nc(C(=O)Nc3cnoc3)c(O)c(=O)n2C)nc1C` (single isomer, unassigned) [Example 124 D1E1], for which the pIC50 in assay [1] and in assay [2] was < 8.00 each time. Also, the “hTREX1 vs hTREX2 selectivity” value in assay [3] is “A (A = <25 fold selective for hTREX1)”.

Regarding `CC(c1nc(C(=O)Nc2cnoc2)c(O)c(=O)n1C)C(c1nnn(C)n1)c1ccccc1C#N` (single isomer, unassigned) [Example 79 D2E2], the pIC50 in assay [1] and in assay [2] was < 8.00 throughout. Besides, the “hTREX1 vs hTREX2 selectivity” value in assay [3] is “A (A = <25 fold selective for hTREX1)”.

Take `Cc1ccn(C(c2cc(F)ccc2Cl)C(C)c2nc(C(=O)Nc3cnoc3)c(O)c(=O)n2C)n1` (single isomer, unassigned) [Example 146 D1E2]: the pIC50 in assay [1] and in assay [2] was < 8.00 in each case. In addition, the “hTREX1 vs hTREX2 selectivity” value in assay [3] is “A (A = <25 fold selective for hTREX1)”.

As to `Cc1ncc(C(c2ccccc2C#N)C(C)c2nc(C(=O)Nc3cnoc3)c(O)c(=O)n2C)nc1C` (single isomer, unassigned) [Example 81 D2E2], the pIC50 in assay [1] and in assay [2] was < 8.00 in each case. Moreover, the “hTREX1 vs hTREX2 selectivity” value in assay [3] is on record as “B (B = 25 to 50-fold selective for hTREX1)”.

For the compound `CC(c1nc(C(=O)Nc2cnoc2)c(O)c(=O)n1C)C(c1cnn(CC(F)(F)F)c1)c1ccccc1C#N` (single isomer, unassigned) [Example 22 D2E1], the pIC50 in assay [1] and in assay [2] was < 8.00 each time. In addition, in assay [3], the “hTREX1 vs hTREX2 selectivity” value is given as “B (B = 25 to 50-fold selective for hTREX1)”.

Consider `CC(c1nc(C(=O)Nc2cnoc2)c(O)c(=O)n1C)C(c1ccccc1C#N)c1ccnn1C` (single isomer, unassigned) [Example 1 D1E2], for which the pIC50 in assay [1] and in assay [2] was < 8.00 each time. In addition, the “hTREX1 vs hTREX2 selectivity” value in assay [3] was “A (A = <25 fold selective for hTREX1)”.

Turning to `Cc1nc(C)c(C(c2ccccc2C#N)C(C)c2nc(C(=O)Nc3cnoc3)c(O)c(=O)n2C)nc1C` (single isomer, unassigned) [Example 122 D1E2], the pIC50 in assay [1] and in assay [2] was < 8.00 in each case. In addition, the “hTREX1 vs hTREX2 selectivity” value in assay [3] is on record as “B (B = 25 to 50-fold selective for hTREX1)”.

`Cc1nnc(C(c2ccccc2Cl)C(C)c2nc(C(=O)Nc3cnoc3)c(O)c(=O)n2C)o1` (single isomer, unassigned) [Example 156 D1E2]: the pIC50 in assay [1] and in assay [2] was < 8.00 each time. Also, in assay [3], the “hTREX1 vs hTREX2 selectivity” value is on record as “A (A = <25 fold selective for hTREX1)”.

As for `CC(c1nc(C(=O)Nc2cnoc2)c(O)c(=O)n1C)C(c1cnn(C)c1)c1cc(Cl)ccc1C#N` (single isomer, unassigned) [Example 26 D2E1], the pIC50 in assay [1] and in assay [2] was < 8.00 throughout. Besides, in assay [3], the “hTREX1 vs hTREX2 selectivity” value is listed as “B (B = 25 to 50-fold selective for hTREX1)”.

Regarding `CC(c1nc(C(=O)Nc2cnoc2)c(O)c(=O)n1C)C(c1cnn(C)c1)c1ccccc1Cl` (single isomer, unassigned) [Example 77 D2E2], the pIC50 in assay [1] and in assay [2] was < 8.00 each time. Further, in assay [3], the “hTREX1 vs hTREX2 selectivity” value is given as “A (A = <25 fold selective for hTREX1)”.

In the case of `Cc1n[nH]c(C)c1C(c1ccccc1C#N)C(C)c1nc(C(=O)Nc2cnoc2)c(O)c(=O)n1C` (single isomer, unassigned) [Example 95 D2E1], the pIC50 in assay [1] and in assay [2] was < 8.00 in each case. In addition, the “hTREX1 vs hTREX2 selectivity” value in assay [3] is “A (A = <25 fold selective for hTREX1)”.

In the case of `Cc1nn(C)c(C)c1C(c1cc(F)ccc1Cl)C(C)c1nc(C(=O)Nc2cnoc2)c(O)c(=O)n1C` (single isomer, unassigned) [Example 154 D1E2], the pIC50 in assay [1] and in assay [2] was < 8.00 each time. In addition, the “hTREX1 vs hTREX2 selectivity” value in assay [3] is recorded as “A (A = <25 fold selective for hTREX1)”.

Consider `CC(c1nc(C(=O)Nc2cnoc2)c(O)c(=O)n1C)C(c1ccccc1)c1cccnc1C#N` (single isomer, unassigned) [Example 155 D2E2], for which the pIC50 in assay [1] and in assay [2] was < 8.00 in each case. In addition, the “hTREX1 vs hTREX2 selectivity” value in assay [3] was “A (A = <25 fold selective for hTREX1)”.

`CCn1cc(C(c2ccccc2Cl)C(C)c2nc(C(=O)Nc3cnoc3)c(O)c(=O)n2C)cn1` (single isomer, unassigned) [Example 85 D2E2]: the pIC50 in assay [1] and in assay [2] was < 8.00 throughout. Besides, the “hTREX1 vs hTREX2 selectivity” value in assay [3] is on record as “A (A = <25 fold selective for hTREX1)”.

Turning to `Cc1cc(C(c2cc(F)ccc2C#N)C(C)c2nc(C(=O)Nc3cnoc3)c(O)c(=O)n2C)n(C)n1` (single isomer, unassigned) [Example 111 D2E2], the pIC50 in assay [1] and in assay [2] was < 8.00 each time. Besides, in assay [3], the “hTREX1 vs hTREX2 selectivity” value is given as “A (A = <25 fold selective for hTREX1)”.

The term pIC50 denotes the negative decadic logarithm of the IC50, by convention in mol/L.
